What all share (test): growth of human tumour cells (NCI), 48 h
The test system of experiment [1] is MOLT-4 leukemia.
Experiment [2] relates to OVCAR-8 ovarian.
The subject of experiment [3] is BT-549 breast.
For experiment [4], the system named is OVCAR-4 ovarian.
In experiment [5] the test system is UO-31 renal.
The subject of experiment [6] is IGROV1 ovarian.
Experiment [7] has as its system SR leukemia.
Experiment [8] deals with HCT-15 colon.
In experiment [9] the test system is HS 578T breast.
For experiment [10], the system named is NCI-H23 lung.

SMILES strings stand for the structures.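 All cell lines were grown in 96-well plates and treated with compound for 48 hours. Here, GI50 denotes the concentration required for 50% inhibition of growth. At the TGI there is no net growth.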

For `O=C1CC(=O)N(C(=O)c2nn(-c3ccc(Cl)cc3)cc2O)N1`, the GI50 in experiment [1] was 0.403 µM; in experiment [2], 0.636 µM; in experiment [3], 0.296 µM; in experiment [4], 1.51 µM; in [5], 0.529 µM; in experiment [6], 0.378 µM. The GI50 was 0.26 µM in [7], 0.486 µM in [8], 0.136 µM in [9] and 0.493 µM in experiment [10]. The TGI in experiment [1] is above 41.7 µM; in experiment [2], above 100 µM; in experiment [3], above 64.5 µM; in experiment [4], above 100 µM; in experiment [5], above 100 µM; in experiment [6] it was 20.2 µM. In addition, the TGI is 5.04 µM in experiment [7], above 100 µM in experiment [8], above 100 µM in experiment [9] and above 100 µM in experiment [10].

On to `C[C@]12CC[C@@H]3c4cc(-c5ccc(F)cc5)c(O)cc4CC[C@H]3[C@@H]1CC[C@@H]2O`, for which the GI50 in experiment [1] was 4.88 µM; in experiment [2] it was 8.02 µM; in [3], 6.51 µM; in experiment [4], 4.04 µM; in experiment [5], 7.01 µM; in experiment [6] it was 6 µM. Also, the GI50 is 4.75 µM in experiment [7], 5.61 µM in [8], 4.84 µM in [9] and 13.8 µM in [10]. Also, the TGI in experiment [1] is 18.3 µM; in experiment [2] it was 37.3 µM; in [3], 23.3 µM; in [4], 17.1 µM; in experiment [5], 21.6 µM; in experiment [6] it was 20.4 µM. Also, the TGI in [7] is 24.5 µM; in experiment [8], 18.8 µM; in [9] it was 22.4 µM; in experiment [10], 37.8 µM.

For the compound `N#Cc1ccc2c(c1)C(=O)c1c-2n(CCCCl)c(=O)c2cc([N+](=O)[O-])ccc12`, the GI50 in experiment [1] is 1.34 µM; in experiment [2] it was 20.6 µM; in [3] it was 2.28 µM; in experiment [4], 60.8 µM; in experiment [5], 2.61 µM; in [6], 3.95 µM. Besides, the GI50 in experiment [7] is 0.178 µM; in experiment [8], 58.4 µM; in experiment [9] it was 41 µM; in [10], 4.81 µM. Besides, the TGI in [1] is 5.26 µM; in experiment [2], above 100 µM; in experiment [3], 23.5 µM; in [4] it was above 100 µM; in [5], above 100 µM; in experiment [6], 53.3 µM. Moreover, the TGI is 1.7 µM in [7], above 100 µM in experiment [8], above 100 µM in [9] and 17.6 µM in experiment [10].

As for `CC(=C/C=C/C=C(C)\C=C\C=C(\C)C(=O)O)/C=C/C=C(/C)C(=O)O`, the TGI in experiment [1], in experiment [2], in [3], in [4], in experiment [5] and in experiment [6] was above 100 µM in each case. The TGI in experiment [7], in [8], in experiment [9] and in experiment [10] was above 100 µM each time.

With `Cc1nc2sc(C(=O)Nc3cccc4ccccc34)c(N)c2cc1C(O)c1ccccc1` (configuration not stated), the GI50 in experiment [1] is 0.0796 µM; in experiment [2] it was 0.101 µM; in experiment [3], 0.144 µM; in [4] it was 0.215 µM; in experiment [5], 0.283 µM; in [6], 0.0651 µM. Further, the GI50 in [7] is 0.04 µM; in experiment [8], 0.0388 µM; in experiment [9], 0.0306 µM; in experiment [10], 0.104 µM. Further, the TGI in experiment [1] was above 65.7 µM; in [2] it was 71.2 µM; in experiment [3] it was 3.63 µM; in [4] it was 44.2 µM; in experiment [5] it was 14.2 µM; in [6], 12.4 µM. For the same compound, the TGI in [7] was above 43 µM; in experiment [8], 11.1 µM; in [9], 0.693 µM; in [10], 15.3 µM.

In the case of `COc1ccc(-c2cc(-c3cccn3C)c(C#N)c(=O)[nH]2)cc1OC`, the GI50 in [1] was 22.7 µM; in experiment [2], above 100 µM; in [3], above 100 µM; in experiment [4] it was above 100 µM; in experiment [5] it was 85.1 µM; in [6], 91.7 µM. The GI50 is 0.483 µM in [7], above 100 µM in experiment [8], above 100 µM in experiment [9] and above 100 µM in experiment [10]. For the same compound, the TGI in [1], in experiment [2], in experiment [3], in experiment [4], in experiment [5] and in experiment [6] was above 100 µM in each case. Also, the TGI in experiment [7], in [8], in experiment [9] and in experiment [10] was above 100 µM each time.

`C/C(=N\Nc1cc(C)c2ccccc2n1)c1ccccn1`: the GI50 is below 0.0381 µM in experiment [1]; 0.0535 µM in [2]; 0.301 µM in experiment [3]; below 0.0377 µM in experiment [5]; below 0.0293 µM in experiment [7]; below 0.0493 µM in experiment [8]. The figures for the GI50 in experiment [9] and in experiment [10] were 1.91 µM and 0.172 µM, respectively. In addition, the TGI in [1] came out at 0.489 µM; in [2] it was 1.35 µM; in experiment [3] it was 15.7 µM; in experiment [4], 2.22 µM; in [5], 0.903 µM; in experiment [6] it was 1.49 µM. Further, the TGI in experiment [7] is 2.39 µM; in [8] it was 1.81 µM; in experiment [9] it was 16.2 µM; in experiment [10], 8.49 µM.

Take `CC(C)C[C@H](NC(=O)Cn1ccc(NCc2ccccc2)cc1=O)B(O)O`: the GI50 was 0.319 µM in [1]; 4.69 µM in experiment [2]; 0.431 µM in experiment [3]; 4.59 µM in experiment [4]; 1.21 µM in experiment [5]; 8.05 µM in [6]. In addition, the GI50 in [7] was 0.281 µM; in experiment [8] it was 2.62 µM; in experiment [9], 3.33 µM; in experiment [10] it was 5.01 µM. In addition, the TGI is above 100 µM in experiment [2]; 2.59 µM in [3]; above 100 µM in experiment [4]; 10.6 µM in experiment [5]; 54.7 µM in [6]; 14.5 µM in experiment [7]. Moreover, the TGI was above 41.6 µM in experiment [8], 85.3 µM in experiment [9] and above 100 µM in [10].

The values above are taken from PubChem BioAssay (NCI).
